Experimental data published in US9573887B2, “Naphthalene derivative” (Daito Chemix Corporation, priority 2010, dated 2017).
Counter-ions that a name gives are not always drawn.

Target: T1, Mouse VCP (Mus musculus, UniProt Q01853)
T1 construct: histidine tag (N); made in house; host or cells: Sf-9 insect cells (baculovirus vector pVL1392)
Assay: ATPase activity of purified His-tagged VCP, [γ-32P]ATP, liberated phosphate by liquid scintillation
Type: biochemical
Conditions: compounds of Examples; ATPase inhibitory activity; 500 ng VCP, 100 μM ATP, 37° C., 10 minutes
Method in brief: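 N-terminally His-tagged mouse VCP, expressed in Sf-9 cells and nickel-purified, was incubated (500 ng) with 100 μM [γ-32P]ATP and test substance at various concentrations in pH 7.4 HEPES/KCl/MgCl2/DTT buffer, 37° C, 10 min. After TCA stop, released phosphate was molybdate-extracted into organic phase and scintillation-counted. IC50 fitted from concentration-response.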

T1 sequence (Q01853 whole entry): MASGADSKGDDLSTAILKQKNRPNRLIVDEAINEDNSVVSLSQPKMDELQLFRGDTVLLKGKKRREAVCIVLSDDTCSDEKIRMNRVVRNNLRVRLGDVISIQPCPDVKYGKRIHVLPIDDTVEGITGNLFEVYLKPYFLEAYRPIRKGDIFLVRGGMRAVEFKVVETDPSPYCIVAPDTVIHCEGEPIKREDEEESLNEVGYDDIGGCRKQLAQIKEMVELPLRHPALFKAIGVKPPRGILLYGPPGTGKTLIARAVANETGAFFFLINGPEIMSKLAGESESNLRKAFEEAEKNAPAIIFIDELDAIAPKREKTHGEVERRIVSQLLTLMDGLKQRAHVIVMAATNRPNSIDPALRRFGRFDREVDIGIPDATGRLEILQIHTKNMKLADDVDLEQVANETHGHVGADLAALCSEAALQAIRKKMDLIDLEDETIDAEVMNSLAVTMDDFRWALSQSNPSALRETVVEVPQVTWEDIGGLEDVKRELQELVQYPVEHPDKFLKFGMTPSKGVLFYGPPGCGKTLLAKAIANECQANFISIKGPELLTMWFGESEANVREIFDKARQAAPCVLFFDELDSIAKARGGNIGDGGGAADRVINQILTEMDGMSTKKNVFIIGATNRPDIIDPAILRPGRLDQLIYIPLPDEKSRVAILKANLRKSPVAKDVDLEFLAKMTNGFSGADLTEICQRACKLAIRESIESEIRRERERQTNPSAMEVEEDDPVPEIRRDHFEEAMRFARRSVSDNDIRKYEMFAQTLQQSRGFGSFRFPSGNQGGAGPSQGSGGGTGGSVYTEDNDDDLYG

IC50 [nM]	SMILES
105	N#Cc1cc(Cl)ccc1/N=N/c1cc(S(=O)(=O)O)c2ccccc2c1N [Example 118, 4-amino-3-(4-chloro-2-cyanophenylazo)naphthalene-1-sulfonic acid sodium salt]
737	Nc1c(/N=N/c2ccc(F)cc2Cl)cc(S(=O)(=O)O)c2ccccc12 [Example 119, 4-amino-3-(2-chloro-4-fluorophenylazo)naphthalene-1-sulfonic acid sodium salt]
162	Cc1ccc(/N=N/c2cc(S(=O)(=O)O)c3ccccc3c2N)c([N+](=O)[O-])c1 [Example 120, 4-amino-3-(4-methyl-2-nitrophenylazo)naphthalene-1-sulfonic acid sodium salt]
2560	COc1cc([N+](=O)[O-])ccc1/N=N/c1cc(S(=O)(=O)O)c2ccccc2c1N [Example 121, 4-amino-3-(2-methoxy-4-nitrophenylazo)naphthalene-1-sulfonic acid sodium salt]
849	Cc1ccc(/N=N/c2cc(S(=O)(=O)O)c3ccccc3c2N)cc1 [Example 122, 4-amino-3-p-tolylazonaphthalene-1-sulfonic acid sodium salt]
274	Nc1c(/N=N/c2ccc(-c3cccnc3)cc2)cc(S(=O)(=O)O)c2ccccc12 [Example 123, 4-amino-3-(4-pyridine-3-ylphenylazo)-1-naphthalenesulfonic acid sodium salt]
4010	Nc1c(/N=N/c2ccc(C(=O)Nc3ccc(CC(C(=O)O)C(=O)O)cc3)cc2)cc(S(=O)(=O)O)c2ccccc12 [Example 124, 2-{4-[4-(1-amino-4-sulfonaphthalene-2-ylazo)benzoylamino]benzyl}malonic acid trisodium salt]
417	Cc1ccc(-c2ccc(/N=N/c3cc(S(=O)(=O)O)c4ccccc4c3N)cc2)cc1 [Example 125, 4-amino-3-(4′-methylbiphenyl-4-ylazo)naphthalene-1-sulfonic acid sodium salt]
343	Cc1cccc(-c2ccc(/N=N/c3cc(S(=O)(=O)O)c4ccccc4c3N)cc2)c1 [Example 126, 4-amino-3-(3′-methylbiphenyl-4-ylazo)naphthalene-1-sulfonic acid sodium salt]
295	Nc1c(/N=N/c2ccc(-c3cncc4ccccc34)cc2)cc(S(=O)(=O)O)c2ccccc12 [Example 127, sodium salt]
128	Nc1c(/N=N/c2c(Br)cc(-c3cccnc3)cc2Br)cc(S(=O)(=O)O)c2ccccc12 [Example 128, 4-amino-3-(2,6-dibromo-4-pyridine-3-ylphenylazo)naphthalene-1-sulfonic acid sodium salt]
1900	Nc1c(/N=N/c2ccc(C(=O)Nc3ccccc3)cc2)cc(S(=O)(=O)O)c2ccccc12 [Example 129, 4-amino-3-(4-phenylcarbamoylphenylazo)naphthalene-1-sulfonic acid sodium salt]
260	Nc1c(/N=N/c2cccc(C(=O)c3ccccc3)c2)cc(S(=O)(=O)O)c2ccccc12 [Example 130, 4-amino-3-(3-benzoylphenylazo)naphthalene-1-sulfonic acid sodium salt]
242	Nc1c(/N=N/c2ccc(C(=O)c3ccccc3)cc2)cc(S(=O)(=O)O)c2ccccc12 [Example 131, 4-amino-3-(4-benzoylphenylazo)naphthalene-1-sulfonic acid sodium salt]
135	Nc1c(/N=N/c2ccc(OCc3ccncc3)cc2)cc(S(=O)(=O)O)c2ccccc12 [Example 132, 4-amino-3-[4-(pyridine-4-ylmethoxy)phenylazo]naphthalene-1-sulfonic acid sodium salt]
518	CSc1ccccc1/N=N/c1cc(S(=O)(=O)O)c2ccccc2c1N [Example 133, 4-amino-3-(2-methylsulfanylphenylazo)naphthalene-1-sulfonic acid sodium salt]

IC50 [nM]	SMILES
327	CSc1ccc(/N=N/c2cc(S(=O)(=O)O)c3ccccc3c2N)cc1 [Example 134, 4-amino-3-(4-methylsulfanylphenylazo)naphthalene-1-sulfonic acid sodium salt]
716	Nc1c(/N=N/c2ccc(OCc3cccnc3)cc2)cc(S(=O)(=O)O)c2ccccc12 [Example 135, 4-amino-3-[4-(pyridine-3-ylmethoxy)phenylazo]naphthalene-1-sulfonic acid sodium salt]
601	Nc1c(/N=N/c2ccc(OCc3ccccn3)cc2)cc(S(=O)(=O)O)c2ccccc12 [Example 136, 4-amino-3-[4-(pyridine-2-ylmethoxy)phenylazo]naphthalene-1-sulfonic acid sodium salt]
610	Nc1c(/N=N/c2cccc(OCc3ccccn3)c2)cc(S(=O)(=O)O)c2ccccc12 [Example 137, 4-amino-3-[3-(pyridine-2-ylmethoxy)phenylazo]naphthalene-1-sulfonic acid sodium salt]
516	Nc1c(/N=N/c2cccc(OCc3cccnc3)c2)cc(S(=O)(=O)O)c2ccccc12 [Example 138, 4-amino-3-[3-(pyridine-3-ylmethoxy)phenylazo]naphthalene-1-sulfonic acid sodium salt]
600	Nc1c(/N=N/c2cccc(OCc3ccncc3)c2)cc(S(=O)(=O)O)c2ccccc12 [Example 139, 4-amino-3-[3-(pyridine-4-ylmethoxy)phenylazo]naphthalene-1-sulfonic acid sodium salt]
596	Nc1c(/N=N/c2ccccc2OCc2ccccn2)cc(S(=O)(=O)O)c2ccccc12 [Example 140, 4-amino-3-[2-(pyridine-2-ylmethoxy)phenylazo]naphthalene-1-sulfonic acid sodium salt]
747	Nc1c(/N=N/c2ccccc2OCc2ccncc2)cc(S(=O)(=O)O)c2ccccc12 [Example 141, 4-amino-3-[2-(pyridine-4-ylmethoxy)phenylazo]naphthalene-1-sulfonic acid sodium salt]
243	Nc1c(/N=N/c2ccccc2OCc2cccnc2)cc(S(=O)(=O)O)c2ccccc12 [Example 142, 4-amino-3-[2-(pyridine-3-ylmethoxy)phenylazo]naphthalene-1-sulfonic acid sodium salt]
1220	N#C/C(=C\c1ccc(/N=N/c2cc(S(=O)(=O)O)c3ccccc3c2N)cc1)c1ccccc1 [Example 143, 4-amino-3-[4-(2-cyano-2-phenylvinyl)phenylazo]naphthalene-1-sulfonic acid sodium salt]
199	Cc1cc(F)ccc1-c1ccc(/N=N/c2cc(S(=O)(=O)O)c3ccccc3c2N)cc1F [Example 144, 4-amino-3-(2,4′-difluoro-2′-methyl-diphenyl-4-ylazo)naphthalene-1-sulfonic acid sodium salt]
295	Nc1c(/N=N/c2cnc3ccccc3c2)cc(S(=O)(=O)O)c2ccccc12 [Example 145, 4-amino-3-(quinoline-3-ylazo)naphthalene-1-sulfonic acid sodium salt]
1290	COC(=O)c1sccc1/N=N/c1cc(S(=O)(=O)O)c2ccccc2c1N [Example 146, methyl 3-(1-amino-4-sulfonaphthalene-2-ylazo)thiophene-2-carboxylate sodium salt]
502	Nc1c(/N=N/c2ccc3ncccc3c2)cc(S(=O)(=O)O)c2ccccc12 [Example 147, 4-amino-3-(quinoline-6-ylazo)naphthalene-1-sulfonic acid sodium salt]
182	CCOc1c(C=O)cc(C)cc1-c1ccc(/N=N/c2cc(S(=O)(=O)O)c3ccccc3c2N)cn1 [Example 149, 4-amino-3-[6-(2-ethoxy-3-formyl-5-methylphenyl)pyridine-3-ylazo]naphthalene-1-sulfonic acid sodium salt]

SMILES	IC50 [nM]
CCCCOc1c(OCC)cc(C=O)cc1-c1ccc(/N=N/c2cc(S(=O)(=O)O)c3ccccc3c2N)cn1 [Example 148, 4-amino-3-[6-(2-butoxy-3-ethoxy-5-formylphenyl)pyridine-3-ylazo]naphthalene-1-sulfonic acid sodium salt]	1560
